In PubChem BioAssay (NCI):
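Assay format: 96-well plates, 48-hour exposure. TGI marks complete inhibition of growth.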

What was measured:
Assay in all cases: growth of human tumour cells (NCI), 48 h
HCT-116 colon = test system: HCT-116 colon
MDA-MB-231 breast = test system: MDA-MB-231 breast
SW-620 colon = test system: SW-620 colon
SNB-19 CNS = test system: SNB-19 CNS
NCI-H23 lung = test system: NCI-H23 lung
UACC-62 melanoma = test system: UACC-62 melanoma
CAKI-1 renal = test system: CAKI-1 renal
CCRF-CEM leukemia = test system: CCRF-CEM leukemia
LOX IMVI melanoma = test system: LOX IMVI melanoma
MDA-N = test system: MDA-N

For `Cc1cc2nc3c(N)nn(CCCN(C)C)c3nc2cc1C`, the TGI (HCT-116 colon) was greater than 100 µM, the TGI (MDA-MB-231 breast) was greater than 100 µM and the TGI (SW-620 colon) was greater than 100 µM. For the same compound, the TGI (SNB-19 CNS) was greater than 100 µM, the TGI (NCI-H23 lung) was greater than 100 µM and the TGI (UACC-62 melanoma) was greater than 100 µM. It also gave a TGI (CAKI-1 renal) greater than 100 µM.

With `C/C(=C\COP(=O)(O)OP(=O)(O)O)CC/C=C(\C)CNc1c(F)c(F)c(F)c(F)c1F` the TGI (HCT-116 colon) was greater than 100 µM, the TGI (MDA-MB-231 breast) was greater than 100 µM and the TGI (SW-620 colon) was greater than 100 µM. For the same compound, the TGI (CCRF-CEM leukemia) was 1.26 µM, the TGI (LOX IMVI melanoma) was greater than 100 µM and the TGI (SNB-19 CNS) was greater than 100 µM. For the same compound, the TGI (NCI-H23 lung) was greater than 100 µM, the TGI (UACC-62 melanoma) was greater than 100 µM and the TGI (CAKI-1 renal) was greater than 100 µM.

With `COC1=CC(=O)C2(C=C1OC)OC[C@H]1Oc3c(ccc4c3C=CC(C)(C)O4)C(=O)[C@H]12` (stereo not given in full) the TGI (HCT-116 colon) was greater than 100 µM, the TGI (SW-620 colon) was greater than 100 µM and the TGI (CCRF-CEM leukemia) was greater than 100 µM. For the same compound, the TGI (LOX IMVI melanoma) was greater than 100 µM, the TGI (SNB-19 CNS) was greater than 100 µM and the TGI (NCI-H23 lung) was 95.3 µM. The TGI (UACC-62 melanoma) was greater than 100 µM.

With `Clc1ccc(Cc2nc3cc4ccccc4cc3[nH]2)cc1Cl` the TGI (HCT-116 colon) was greater than 100 µM, the TGI (MDA-MB-231 breast) was 38 µM and the TGI (SW-620 colon) was 41.3 µM. It also gave a TGI (CCRF-CEM leukemia) greater than 100 µM, a TGI (LOX IMVI melanoma) of 60.8 µM and a TGI (SNB-19 CNS) of 46 µM. The TGI (NCI-H23 lung) was 71.6 µM, the TGI (UACC-62 melanoma) was 34.2 µM and the TGI (CAKI-1 renal) was 43.5 µM.

Work on `O=C1C=C2SC3C[C@@]24CC1(O)[N+]1=c2c4c(c(O)c4c2=C(C=N4)CC1)N3` yielded a TGI (HCT-116 colon) of 0.492 µM, a TGI (SW-620 colon) of 0.809 µM and a TGI (CCRF-CEM leukemia) of 2.03 µM. For the same compound, the TGI (LOX IMVI melanoma) was 1.55 µM, the TGI (SNB-19 CNS) was 3.12 µM and the TGI (NCI-H23 lung) was 2.71 µM. The TGI (UACC-62 melanoma) was 1.51 µM and the TGI (CAKI-1 renal) was 4 µM.

With `CCCOC(=O)CCC(NC(=O)c1ccc(Nc2nc3ccccc3nc2-c2cccs2)cc1)C(=O)OCCC` (stereo not given) the TGI (HCT-116 colon) was greater than 100 µM, the TGI (SW-620 colon) was greater than 100 µM and the TGI (CCRF-CEM leukemia) was greater than 100 µM. It also gave a TGI (LOX IMVI melanoma) greater than 100 µM, a TGI (SNB-19 CNS) greater than 100 µM and a TGI (NCI-H23 lung) greater than 100 µM. The TGI (UACC-62 melanoma) was greater than 100 µM and the TGI (CAKI-1 renal) was greater than 100 µM.

With `COc1ccc(/C=C(\C#N)c2ccccn2)cc1OC` the TGI (HCT-116 colon) was greater than 100 µM, the TGI (SW-620 colon) was greater than 100 µM and the TGI (CCRF-CEM leukemia) was greater than 100 µM. It also gave a TGI (SNB-19 CNS) greater than 100 µM, a TGI (MDA-N) greater than 100 µM and a TGI (NCI-H23 lung) greater than 100 µM. It also gave a TGI (UACC-62 melanoma) greater than 100 µM and a TGI (CAKI-1 renal) greater than 100 µM.

`CCCNC(=O)c1cc(OC)c(OC)cc1NC(=O)C12CC3CC(CC(C3)C1)C2` showed a TGI (HCT-116 colon) of 30.4 µM, a TGI (MDA-MB-231 breast) of 31.4 µM and a TGI (SW-620 colon) greater than 100 µM. For the same compound, the TGI (CCRF-CEM leukemia) was greater than 100 µM, the TGI (LOX IMVI melanoma) was 39.7 µM and the TGI (SNB-19 CNS) was 30 µM. The TGI (MDA-N) was 30.3 µM, the TGI (NCI-H23 lung) was 31.6 µM and the TGI (CAKI-1 renal) was 41.3 µM.

Work on `O=S(c1ccc(O)cc1)c1ccc(O)cc1` yielded a TGI (HCT-116 colon) greater than 100 µM, a TGI (SW-620 colon) greater than 100 µM and a TGI (CCRF-CEM leukemia) greater than 100 µM. The TGI (LOX IMVI melanoma) was greater than 100 µM, the TGI (SNB-19 CNS) was greater than 100 µM and the TGI (NCI-H23 lung) was greater than 100 µM. It also gave a TGI (UACC-62 melanoma) greater than 100 µM and a TGI (CAKI-1 renal) greater than 100 µM.

Work on `O=C(OC[C@H]1C[C@H]2C(=O)OCCC[C@H]2O1)c1ccccc1` yielded a TGI (HCT-116 colon) greater than 100 µM, a TGI (MDA-MB-231 breast) greater than 100 µM and a TGI (SW-620 colon) greater than 100 µM. The TGI (CCRF-CEM leukemia) was greater than 100 µM, the TGI (SNB-19 CNS) was greater than 100 µM and the TGI (MDA-N) was greater than 100 µM. The TGI (NCI-H23 lung) was greater than 100 µM, the TGI (UACC-62 melanoma) was greater than 100 µM and the TGI (CAKI-1 renal) was greater than 100 µM.

Work on `C=CCSC1=N/C(=C\c2ccc(C)cc2)C(=O)N1CC=C` yielded a TGI (HCT-116 colon) of 67.4 µM, a TGI (MDA-MB-231 breast) greater than 100 µM and a TGI (SW-620 colon) greater than 100 µM. The TGI (LOX IMVI melanoma) was 82.3 µM, the TGI (SNB-19 CNS) was greater than 100 µM and the TGI (MDA-N) was 45.1 µM. For the same compound, the TGI (NCI-H23 lung) was greater than 100 µM, the TGI (UACC-62 melanoma) was greater than 100 µM and the TGI (CAKI-1 renal) was greater than 100 µM.

`O=c1[nH]nc(-c2cccc([N+](=O)[O-])c2)[nH]1` gave a TGI (HCT-116 colon) greater than 100 µM, a TGI (SW-620 colon) greater than 100 µM and a TGI (CCRF-CEM leukemia) greater than 100 µM. For the same compound, the TGI (LOX IMVI melanoma) was greater than 100 µM, the TGI (SNB-19 CNS) was greater than 100 µM and the TGI (MDA-N) was greater than 100 µM. For the same compound, the TGI (NCI-H23 lung) was greater than 100 µM, the TGI (UACC-62 melanoma) was greater than 100 µM and the TGI (CAKI-1 renal) was greater than 100 µM.
